Structures can show the parent of a compound that is named as a salt.
Key:
hCRF1 = molecular target: T1, hCRF1 (Homo sapiens, UniProt P34998); experiment: CRF Receptor Binding Assay; conditions: CRF1 receptor binding affinity (table title); read-out: hCRF1 (pIC50) (converted)
T1 construct: Celll membranes are prepared according the method of Dieterich and DeSouza (1996); endogenous in cells; host or cells: human IMR-32 neuroblastoma cells (membrane preparation)
T1 sequence (P34998 24-415): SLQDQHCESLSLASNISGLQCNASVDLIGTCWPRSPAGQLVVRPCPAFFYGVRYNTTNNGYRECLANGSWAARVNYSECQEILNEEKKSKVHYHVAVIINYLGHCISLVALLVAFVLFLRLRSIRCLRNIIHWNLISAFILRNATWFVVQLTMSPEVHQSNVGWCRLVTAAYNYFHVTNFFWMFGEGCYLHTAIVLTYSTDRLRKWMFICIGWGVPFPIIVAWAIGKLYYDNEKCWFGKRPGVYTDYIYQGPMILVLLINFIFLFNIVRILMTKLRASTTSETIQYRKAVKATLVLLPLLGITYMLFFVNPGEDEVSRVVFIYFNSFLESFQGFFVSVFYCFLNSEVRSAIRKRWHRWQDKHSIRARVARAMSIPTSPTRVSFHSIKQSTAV
Experimental: Human IMR-32 neuroblastoma cells are grown to 80% confluence in MEM medium containing 10% heat-inactivated FBS, 1 mM Sodium Pyruvate, and 0.1 mM nonessential amino acids. Celll membranes are prepared according the method of Dieterich and DeSouza (1996). The cells (˜5E+9) are resuspended in 10 volumes of wash buffer (5 mM Tris HCl, 10 mM MgCl2, 2 mM EGTA, pH 7.4 at RT), homogenized with a Polytron, and then centrifuged at 45,000 G for 20 min at 4° C. The membrane pellets are washed twice with wash buffer (45,000 G for 20 min at 4° C.) and then resuspended (50 mM Tris HCl, 10 mM MgCl2, 2 mM EGTA, pH 7.4 at RT). Protein concentration is determined using Pierce reagents and BSA as standard. Aliquots of 1-1.5 ml are stored at −80° C. until binding assay.
The competition binding assay is performed in a final volume of 250 μl, which contains assay buffer (50 mM Tris-HCl, 10 mM MgCl2, 2 mM EGTA, 0.2% BSA, 0.1 mM bacitracin and 100 kIU/ml aprotinin pH 7.2 at R.T.), 0.05 nM [^125I]Tyr^0-ovine CRF (Du Pont New England Nuclear), 50 μg of membrane protein, and test compound at various concentrations. Non-specific binding is determined with 1 uM hCRF. Binding reactions are terminated after 2 hr incubation at 25° C. by filtering through 96-w GF/C filter plate using a Packard Harvester (Filtermate 196). The 96-w filter plate is pre-treated with 0.3% polyethyleneimine and pre-washed with washing buffer (50 mM Tris-HCl, 10 mM MgCl2, 2 mM EGTA, 0.2% BSA, pH 7.2 at 4° C.). Unbound radioactivity is removed by four rapid washes (0.8 ml/well) with wash buffer. The radioactivity is quantified using a Packard TopCount. Data are analyzed using non-linear iterative curve fitting to obtain IC50 and Hill slope values. PKi values are derived from pIC50 values (−log of IC50).

SMILES	IC50 (hCRF1)	melting point
Cc1cc(C)c(N2CCCc3c2nn(C)c3Br)c(Cl)c1 [Example 1, 3-Bromo-7-(2-chloro-4,6-dimethylphenyl)-2-methyl-4,5,6,7-tetrahydro-2H-pyrazolo[3,4-b]pyridine]	1070 nM	106 to 107 °C
CCCC(O)(c1cccs1)c1c2c(nn1C)N(c1c(C)cc(C)cc1C)CCC2 (centres unmarked) [Example 5c, 1-[2-Methyl-7-(2,4,6-trimethylphenyl)-4,5,6,7-tetrahydro-2H-pyrazolo[3,4-b]pyridin-3-yl]-1-thiophen-2-ylbutan-1-ol]	11200 nM	175.9 to 178.4 °C
Cc1cc(C)c(N2CCCc3c2nn(C)c3-c2ccccc2C(F)(F)F)c(C)c1 [Example 13a, 2-Methyl-3-(2-trifluoromethylphenyl)-7-(2,4,6-trimethylphenyl)-4,5,6,7-tetrahydro-2H-pyrazolo[3,4-b]pyridine]	776 nM	59 to 63 °C
Cc1cc(C)c(N2CCCc3c2nn(C)c3CN2CCc3ccccc3C2)c(C)c1 [Example 11, 2-[2-Methyl-7-(2,4,6-trimethyl-phenyl)-4,5,6,7-tetrahydro-2H-pyrazolo[3,4-b]pyridin-3-ylmethyl]-1,2,3,4-tetrahydroisoquinolinedihydrochloride]	12000 nM	–
CC/C=C(\CCC)c1c2c(nn1C)N(c1ccc(Cl)cc1Cl)CCC2 [Example 6e, 7-(2,4-Dichlorophenyl)-2-methyl-3-(1-propylbut-1-enyl)-4,5,6,7-tetrahydro-2H-pyrazolo[3,4-b]pyridine]	234 nM	–
CCCC(CCC)c1c2c(nn1C)N(c1c(C)cc(C)cc1C)CCC2 [Example 7b, 2-Methyl-3-(1-propylbutyl)-7-(2,4,6-trimethylphenyl)-4,5,6,7-tetrahydro-2H-pyrazolo[3,4-b]pyridine]	87.1 nM	91.5 to 92 °C
COc1cccc(OC)c1-c1c2c(nn1C)N(c1c(C)cc(C)cc1C)CCC2 [Example 13b, 3-(2,6-Dimethoxyphenyl)-2-methyl-7-(2,4,6-trimethylphenyl)-4,5,6,7-tetrahydro-2H-pyrazolo[3,4-b]pyridine]	–	169.9 to 172.8 °C
CCCN(CCC)c1c2c(nn1C)N(c1c(C)cc(C)cc1Cl)CCC2 [Example 9a, [7-(2-Chloro-4,6-dimethylphenyl)-2-methyl-4,5,6,7-tetrahydro-2H-pyrazolo[3,4-b]pyridin-3-yl]dipropylamine]	–	90 to 91 °C
CCCN(Cc1ccco1)c1c2c(nn1C)N(c1c(C)cc(C)cc1Cl)CCC2 [Example 9c, [7-(2-Chloro-4,6-dimethyl-phenyl)-2-methyl-4,5,6,7-tetrahydro-2H-pyrazolo[3,4-b]pyridin-3-yl]-furan-2-ylmethyl-propyl-aminetrifluoroacetic acid salt]	832 nM	–
CCOC(=O)Nc1c2c(nn1C)N(c1c(C)cc(C)cc1Cl)CCC2 [Example 8d, [7-(2-Chloro-4,6-dimethylphenyl)-2-methyl-4,5,6,7-tetrahydro-2H-pyrazolo[3,4-b]pyridin-3-yl]carbamic acid ethyl ester]	–	204 to 207.8 °C
CCCN(CC1CC1)C(=O)c1c2c(nn1C)N(c1c(C)cc(C)cc1Cl)CCC2 [Example 10a, 7-(2-Chloro-4,6-dimethylphenyl)-2-methyl-4,5,6,7-tetrahydro-2H-pyrazolo[3,4-b]pyridine-3-carboxylic acidcyclopropylmethylpropylamide]	–	120.6 to 122 °C
CCCC(O)(c1nccs1)c1c2c(nn1C)N(c1c(C)cc(C)cc1C)CCC2 (centres unmarked) [Example 5h, 1-[2-Methyl-7-(2,4,6-trimethylphenyl)-4,5,6,7-tetrahydro-2H-pyrazolo[3,4-b]pyridin-3-yl]-1-thiazol-2-ylbutan-1-ol]	–	160.1 to 165.6 °C
CCCC(CCC)Oc1c2c(nn1C)N(c1ccc(Cl)cc1Cl)CCC2 [Example 12b, 7-(2,4-Dichlorophenyl)-2-methyl-3-(1-propylbutoxy)-4,5,6,7-tetrahydro-2H-pyrazolo[3,4-b]pyridinehydrochloride]	27.5 nM	–
CCC(COC)Nc1c2c(nn1C)N(c1c(C)cc(C)cc1C)CCC2 (centres unmarked) [Example 9aj, (1-Methoxymethylpropyl)-[2-methyl-7-(2,4,6-trimethylphenyl)-4,5,6,7-tetrahydro-2H-pyrazolo[3,4-b]pyridin-3-yl]-amine]	–	96.5 to 102.5 °C
Cc1cc(C)c(N2CCCc3c2nn(C)c3C(=O)O)c(Cl)c1 [Example 8a, 7-(2-Chloro-4,6-dimethylphenyl)-2-methyl-4,5,6,7-tetrahydro-2H-pyrazolo[3,4-b]pyridine-3-carboxylic acid]	–	247.8 to 248.3 °C
COCC(O)(COC)c1c2c(nn1C)N(c1c(C)cc(C)cc1C)CCC2 [Example 5f, 1,3-Dimethoxy-2-[2-methyl-7-(2,4,6-trimethylphenyl)-4,5,6,7-tetrahydro-2H-pyrazolo[3,4-b]pyridin-3-yl]propan-2-ol]	–	120.3 to 121.8 °C
